Patent US12570642B2, “GLP-IR modulating compounds” (Gilead Sciences, Inc., priority 2021, dated 2026)

molecular target: GLP-1R (Homo sapiens, UniProt P43220); assay: GLP-1R Activation - cAMP Assay; type: cell-based; settings: cAMP increase in CHO cells stably expressing GLP-1R; each compound run on one of the two cAMP assays (Assay 1 or Assay 2, not specified)
Summary of the method: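 cAMP rise read by HTRF after 30 min agonist exposure (10-point titration, 37 °C) in HBSS/20 mM Hepes/0.1% BSA, following 1 h pre-incubation. Cells: stable GLP-1R CHO line, 1,000/well, seeded overnight. Sigmoidal fit of response vs log concentration gives EC50.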

Chain of GLP-1R (P43220 24-463): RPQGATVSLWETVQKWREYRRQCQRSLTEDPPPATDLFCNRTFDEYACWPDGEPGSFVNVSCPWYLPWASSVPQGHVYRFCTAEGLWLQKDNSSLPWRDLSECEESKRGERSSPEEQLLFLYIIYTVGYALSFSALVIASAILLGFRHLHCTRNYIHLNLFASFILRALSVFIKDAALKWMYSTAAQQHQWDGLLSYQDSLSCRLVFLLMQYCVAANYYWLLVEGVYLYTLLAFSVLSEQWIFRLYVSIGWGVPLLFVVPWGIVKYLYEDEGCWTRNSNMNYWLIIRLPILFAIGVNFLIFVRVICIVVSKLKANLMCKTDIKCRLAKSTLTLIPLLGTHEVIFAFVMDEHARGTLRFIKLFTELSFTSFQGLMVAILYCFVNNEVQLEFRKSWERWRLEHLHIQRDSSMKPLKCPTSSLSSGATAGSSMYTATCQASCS

Compound	EC50 [nM]
CC1(C)COC[C@H]1n1c(Cc2ccc(-c3cccc(OCc4ccc(C#N)cc4)n3)cc2F)nc2ccc(C(=O)O)cc21 [Example 373, (S)-2-(4-(6-((4-cyanobenzyl)oxy)pyridin-2-yl)-2-fluorobenzyl)-1-(4,4-dimethyltetrahydrofuran-3-yl)-1H-benzo[d]imidazole-6-carboxylic acid]	0.294
CC1(C)COC[C@H]1n1c(Cc2cc(F)c(-c3cccc(OCc4ccc(C#N)cc4)n3)cc2F)nc2c(F)cc(C(=O)O)cc21 [Example 376, (S)-2-(4-(6-((4-cyanobenzyl)oxy)pyridin-2-yl)-2,5-difluorobenzyl)-1-(4,4-dimethyltetrahydrofuran-3-yl)-4-fluoro-1H-benzo[d]imidazole-6-carboxylic acid]	0.056
COCCn1c(Cc2c(F)cc(-c3cccc(OCc4ccc(Cl)cc4)n3)c(F)c2F)nc2c(F)cc(C(=O)O)cc21 [Example 377, 2-(4-(6-((4-chlorobenzyl)oxy)pyridin-2-yl)-2,3,6-trifluorobenzyl)-4-fluoro-1-(2-methoxyethyl)-1H-benzo[d]imidazole-6-carboxylic acid]	0.188
COCCn1c(Cc2c(F)cc(-c3cccc(OCc4ccc(C#N)cc4)n3)c(F)c2F)nc2c(F)cc(C(=O)O)cc21 [Example 378, 2-(4-(6-((4-cyanobenzyl)oxy)pyridin-2-yl)-2,3,6-trifluorobenzyl)-4-fluoro-1-(2-methoxyethyl)-1H-benzo[d]imidazole-6-carboxylic acid]	0.321
CO[C@H](C)Cn1c(Cc2cc(F)c(-c3cccc(OCc4ccc(C#N)cc4)n3)cc2F)nc2c(F)cc(C(=O)O)cc21 [Example 381, (R)-2-(4-(6-((4-cyanobenzyl)oxy)pyridin-2-yl)-2,5-difluorobenzyl)-4-fluoro-1-(2-methoxypropyl)-1H-benzo[d]imidazole-6-carboxylic acid]	0.267
CC1(C)COCC1n1c(Cc2ccc(-c3cccc(OCc4ccc(C#N)cc4F)n3)cc2F)nc2ccc(C(=O)O)cc21 (stereo not shown) [Example 384, 2-(4-(6-((4-cyano-2-fluorobenzyl)oxy)pyridin-2-yl)-2-fluorobenzyl)-1-(4,4-dimethyltetrahydrofuran-3-yl)-1H-benzo[d]imidazole-6-carboxylic acid]	0.205
CC1(C)COCC1n1c(Cc2cc(F)c(-c3cccc(OCc4ccc(Cl)cc4)n3)cc2F)nc2ccc(C(=O)O)cc21 (stereo not shown) [Example 387, 2-(4-(6-((4-chlorobenzyl)oxy)pyridin-2-yl)-2,5-difluorobenzyl)-1-(4,4-dimethyltetrahydrofuran-3-yl)-1H-benzo[d]imidazole-6-carboxylic acid]	0.043
CC1(C)COC[C@H]1n1c(Cc2cc(F)c(-c3cccc(OCc4ccc(Cl)c(Cl)c4)n3)cc2F)nc2ccc(C(=O)O)cc21 [Example 393, (S)-2-(4-(6-((3,4-dichlorobenzyl)oxy)pyridin-2-yl)-2,5-difluorobenzyl)-1-(4,4-dimethyltetrahydrofuran-3-yl)-1H-benzo[d]imidazole-6-carboxylic acid]	0.652
CC1(C)COC[C@H]1n1c(Cc2cc(F)c(-c3cccc(OCc4ccc(Cl)c(F)c4)n3)cc2F)nc2ccc(C(=O)O)cc21 [Example 394, (S)-2-(4-(6-((4-chloro-3-fluorobenzyl)oxy)pyridin-2-yl)-2,5-difluorobenzyl)-1-(4,4-dimethyltetrahydrofuran-3-yl)-1H-benzo[d]imidazole-6-carboxylic acid]	0.243
CC1(C)COC[C@H]1n1c(Cc2cc(F)c(-c3ccc(F)c(OCc4ccc(C#N)cc4)n3)cc2F)nc2ccc(C(=O)O)nc21 [Example 396, (S)-2-(4-(6-((4-cyanobenzyl)oxy)-5-fluoropyridin-2-yl)-2,5-difluorobenzyl)-3-(4,4-dimethyltetrahydrofuran-3-yl)-3H-imidazo[4,5-b]pyridine-5-carboxylic acid]	0.157
CC1(C)COC[C@H]1n1c(Cc2cc(F)c(-c3cccc(OCc4ccc(C#N)cc4)n3)cc2F)nc2cc(Cl)c(C(=O)O)cc21 [Example 397, (S)-5-chloro-2-(4-(6-((4-cyanobenzyl)oxy)pyridin-2-yl)-2,5-difluorobenzyl)-1-(4,4-dimethyltetrahydrofuran-3-yl)-1H-benzo[d]imidazole-6-carboxylic Acid]	0.546
CC1(C)COC[C@H]1n1c(Cc2cc(F)c(-c3cccc(OCc4ccc(Cl)cc4F)n3)cc2F)nc2cc(O)c(C(=O)O)cc21 [Example 400, (S)-2-(4-(6-((4-chloro-2-fluorobenzyl)oxy)pyridin-2-yl)-2,5-difluorobenzyl)-1-(4,4-dimethyltetrahydrofuran-3-yl)-5-hydroxy-1H-benzo[d]imidazole-6-carboxylic acid]	0.44
CC1(C)COC[C@H]1n1c(Cc2cc(F)c(-c3cccc(OCc4ccc(C#N)cc4)n3)cc2F)nc2cc(O)c(C(=O)O)cc21 [Example 401, (S)-2-(4-(6-((4-cyanobenzyl)oxy)pyridin-2-yl)-2,5-difluorobenzyl)-1-(4,4-dimethyltetrahydrofuran-3-yl)-5-hydroxy-1H-benzo[d]imidazole-6-carboxylic acid]	0.247
CC1(C)COC[C@H]1n1c(Cc2cc(F)c(-c3cccc(OCc4ccc(Cl)cc4F)n3)cc2F)nc2cc(Cl)c(C(=O)O)cc21 [Example 402, (S)-5-chloro-2-(4-(6-((4-chloro-2-fluorobenzyl)oxy)pyridin-2-yl)-2,5-difluorobenzyl)-1-(4,4-dimethyltetrahydrofuran-3-yl)-1H-benzo[d]imidazole-6-carboxylic acid]	0.561

Continued, values first:

EC50 [nM]	Compound
0.571	COCCn1c(Cc2cc(F)c(-c3cccc(OCc4ccc(-n5ccnn5)cc4F)n3)cc2F)nc2ccc(C(=O)O)c(F)c21 [Example 374, 2-(2,5-difluoro-4-(6-((2-fluoro-4-(1H-1,2,3-triazol-1-yl)benzyl)oxy)pyridin-2-yl)benzyl)-7-fluoro-1-(2-methoxyethyl)-1H-benzo[d]imidazole-6-carboxylic acid]
0.272	COCCn1c(Cc2cc(F)c(-c3cccc(OCc4ccc(C#N)cc4)n3)cc2F)nc2ccc(C(=O)O)c(F)c21 [Example 375, 2-(4-(6-((4-cyanobenzyl)oxy)pyridin-2-yl)-2,5-difluorobenzyl)-7-fluoro-1-(2-methoxyethyl)-1H-benzo[d]imidazole-6-carboxylic acid]
0.604	COCCn1c(Cc2cc(F)c(-c3cccc(OCc4ccc(C#N)cc4)n3)cc2F)nc2c(F)cc(C(=O)O)cc21 [Example 382, 2-(4-(6-((4-cyanobenzyl)oxy)pyridin-2-yl)-2,5-difluorobenzyl)-4-fluoro-1-(2-methoxyethyl)-1H-benzo[d]imidazole-6-carboxylic acid]
0.093	COCCn1c(Cc2cc(F)c(-c3cccc(OCc4ccc(Cl)cc4)n3)cc2F)nc2c(F)cc(C(=O)O)cc21 [Example 386, 2-(4-(6-((4-chlorobenzyl)oxy)pyridin-2-yl)-2,5-difluorobenzyl)-4-fluoro-1-(2-methoxyethyl)-1H-benzo[d]imidazole-6-carboxylic acid]
0.053	CC1(C)COC[C@H]1n1c(Cc2cc(F)c(-c3ccc(F)c(OCc4cnc(-n5ccnn5)cc4Cl)c3)cc2F)nc2ccc(C(=O)O)cc21 [Example 388, (S)-2-((3′-((4-chloro-6-(1H-1,2,3-triazol-1-yl)pyridin-3-yl)methoxy)-2,4′,5-trifluoro-[1,1′-biphenyl]-4-yl)methyl)-1-(4,4-dimethyltetrahydrofuran-3-yl)-1H-benzo[d]imidazole-6-carboxylic acid]
0.55	COCCn1c(Cc2cc(F)c(-c3ccnc(OCc4cnc(-n5ccnn5)cc4Cl)n3)cc2F)nc2ccc(C(=O)O)cc21 [Example 389, 2-(4-(2-((4-chloro-6-(1H-1,2,3-triazol-1-yl)pyridin-3-yl)methoxy)pyrimidin-4-yl)-2,5-difluorobenzyl)-1-(2-methoxyethyl)-1H-benzo[d]imidazole-6-carboxylic acid]
3.12	COCCn1c(Cc2cc(F)c(-c3ccc(F)c(OCc4cnc(-n5ccnn5)cc4Cl)c3)cc2F)nc2ccc(C(=O)O)cc21 [Example 390, 2-((3′-((4-chloro-6-(1H-1,2,3-triazol-1-yl)pyridin-3-yl)methoxy)-2,4′,5-trifluoro-[1,1′-biphenyl]-4-yl)methyl)-1-(2-methoxyethyl)-1H-benzo[d]imidazole-6-carboxylic acid]
0.107	COCCn1c(Cc2c(F)cc(-c3cccc(OCc4cnc(-n5ccnn5)cc4Cl)n3)c(F)c2F)nc2ccc(C(=O)O)cc21 [Example 391, 2-(4-(6-((4-chloro-6-(1H-1,2,3-triazol-1-yl)pyridin-3-yl)methoxy)pyridin-2-yl)-2,3,6-trifluorobenzyl)-1-(2-methoxyethyl)-1H-benzo[d]imidazole-6-carboxylic acid]
0.036	COCCn1c(Cc2c(F)cc(-c3ccc(F)c(OCc4cnc(-n5ccnn5)cc4Cl)n3)c(F)c2F)nc2ccc(C(=O)O)cc21 [Example 392, 2-(4-(6-((4-chloro-6-(1H-1,2,3-triazol-1-yl)pyridin-3-yl)methoxy)-5-fluoropyridin-2-yl)-2,3,6-trifluorobenzyl)-1-(2-methoxyethyl)-1H-benzo[d]imidazole-6-carboxylic acid]
0.217	CC1(C)COC[C@H]1n1c(Cc2cc(F)c(-c3ccc(F)c(OCc4ccc(Cl)cc4Cl)n3)cc2F)nc2ccc(C(=O)O)cc21 [Example 398, (S)-2-(4-(6-((2,4-dichlorobenzyl)oxy)-5-fluoropyridin-2-yl)-2,5-difluorobenzyl)-1-(4,4-dimethyltetrahydrofuran-3-yl)-1H-benzo[d]imidazole-6-carboxylic acid]
0.124	CC1(C)COC[C@H]1n1c(Cc2cc(F)c(-c3cccc(OCc4ccc(Cl)cc4Cl)n3)cc2F)nc2ccc(C(=O)O)cc21 [Example 399, (S)-2-(4-(6-((2,4-dichlorobenzyl)oxy)pyridin-2-yl)-2,5-difluorobenzyl)-1-(4,4-dimethyltetrahydrofuran-3-yl)-1H-benzo[d]imidazole-6-carboxylic acid]
